This is an account of results in paper PMC13408680, “SLC26A11 is an atypical solute carrier with dual transport-channel function mediating lysosomal sulfate transport” (Nature Communications, 2026).

Changes are numbered by the printed parent chain.

Broadly, the Km is the substrate concentration at which the rate is half of its maximum.

Data set [1] deals with T1, SLC26A11^ΔC (SLC26A11(ΔC)) (Homo sapiens, UniProt Q86WA9).
T1 construct: C-terminal disordered 23 residues deleted (MD model residues 26-583); expressed in Trichoplusia ni cells by baculovirus; N-glycosylated at Asn-294; homodimer; DDM micelles (DSF), SoyPC/BMP proteoliposomes (transport), MSP1-E3D1 nanodiscs (cryo-EM)
T1 sequence (Q86WA9 1-583): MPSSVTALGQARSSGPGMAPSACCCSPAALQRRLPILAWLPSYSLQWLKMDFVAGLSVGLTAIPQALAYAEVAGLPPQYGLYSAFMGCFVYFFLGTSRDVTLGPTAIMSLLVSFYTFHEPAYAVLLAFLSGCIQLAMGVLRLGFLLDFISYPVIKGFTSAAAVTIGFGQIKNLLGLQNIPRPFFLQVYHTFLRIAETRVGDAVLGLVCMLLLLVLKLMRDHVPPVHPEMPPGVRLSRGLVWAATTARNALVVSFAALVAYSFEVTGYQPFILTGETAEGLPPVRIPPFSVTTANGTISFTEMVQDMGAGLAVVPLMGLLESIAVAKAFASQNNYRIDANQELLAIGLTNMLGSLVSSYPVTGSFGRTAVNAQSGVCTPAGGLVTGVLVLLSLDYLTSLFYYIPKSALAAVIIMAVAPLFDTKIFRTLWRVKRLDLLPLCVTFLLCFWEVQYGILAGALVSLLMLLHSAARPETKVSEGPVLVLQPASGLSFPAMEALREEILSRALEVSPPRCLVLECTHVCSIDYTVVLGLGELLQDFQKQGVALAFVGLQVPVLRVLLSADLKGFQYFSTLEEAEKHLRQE
Kind of data set: differential scanning fluorimetry (nanoDSF), anion titration. In kind it is binding. As to conditions: read-out: apparent KD. In general terms: DSF heats the sample and reads unfolding from a dye or from intrinsic fluorescence.

For data set [2], the target named is T2, SLC26A11^ΔC (SLC26A11(ΔC)) (Homo sapiens, UniProt Q86WA9, E320Q).
T2 construct: C-terminal disordered 23 residues deleted (MD model residues 26-583); expressed in Trichoplusia ni cells by baculovirus; N-glycosylated at Asn-294; homodimer; DDM micelles (DSF), SoyPC/BMP proteoliposomes (transport), MSP1-E3D1 nanodiscs (cryo-EM)
T2 sequence (Q86WA9 1-583 E320Q): T1 sequence (Q86WA9 1-583) with E320Q
Described as above. Format: binding.

Substrate in data set [3]: O=S(=O)(O)O
The data set can be described thus: purified protein. In kind it is biochemical, Homo sapiens. As to conditions: pH out 5.0, pH in 7.5, 50 mM internal chloride, 30 °C, labelled compound.

`Cl` [chloride]: the Kd was determined as 6 ± 1.4 mM in data set [1] and 8.8 ± 1.4 mM in data set [2].

In the case of `O=S(=O)(O)O` [sulfate], the Kd in data set [1] stood at 0.057 ± 0.011 mM; in data set [2] it was 0.019 ± 0.004 mM.

B1: SLC26A11^ΔC (SLC26A11(ΔC)) (Homo sapiens) (protein)
chain: T1 sequence (Q86WA9 1-583)
notes: C-terminal disordered 23 residues deleted (MD model residues 26-583); expressed in Trichoplusia ni cells by baculovirus; N-glycosylated at Asn-294; homodimer; DDM micelles (DSF), SoyPC/BMP proteoliposomes (transport), MSP1-E3D1 nanodiscs (cryo-EM)
Consider B1, for which the Km in data set [3] turned out to be 39.7 ± 5.5 µM.
